This note sets out measurements from US10765114B2, “4-amino-6-(pyridyl and 2-substitutedphenyl)-picolinates and 6-amino-2-(pyridyl and 2-substitutedphenyl)-pyrimidine-4-carboxylates and their use as herbicides” (Dow AgroSciences LLC, priority 2013, dated 2020).

Read-outs that look alike come from different tables or passages of the source.

Data set [1] concerns Key Grass and Sedge Weeds as well as Grass Crops. The data set can be described thus: Post-Emergent Test II (Table 6). Format: in vivo. Conditions: for pest or weed control at 70 g/ha / pest or weed control at 140 g/ha: post-emergence, 336 h, 14 days after application; for Visual Growth Reduction (%) 14 Days After Application, CYPSS: CYPSS (CYPES: yellow nutsedge, Cyperus esculentus); for Visual Growth Reduction (%) 14 Days After Application, ECHSS: ECHSS (ECHCG: barnyardgrass, Echinochloa crus-galli); for Visual Growth Reduction (%) 14 Days After Application, ORYSS: ORYSS (ORYSA: rice, Oryza sativa); for Visual Growth Reduction (%) 14 Days After Application, ORYSS / Visual Growth Reduction (%) 14 Days After Application, TRZSS / Visual Growth Reduction (%) 14 Days After Application, ZEAMX: crop; for Visual Growth Reduction (%) 14 Days After Application, SORVU: SORVU: johnsongrass (Sorghum vulgare); for Visual Growth Reduction (%) 14 Days After Application, TRZSS: TRZSS (TRZAS: wheat, spring, Triticum aestivum). In outline: (§1)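 Plants grown in a greenhouse (~15 h photoperiod, 23-29° C day) to first or second true leaf stage were sprayed post-emergence at 187 L/ha with compound in acetone/DMSO-based aqueous spray containing crop oil concentrate and surfactant, applied at a high rate plus ½× to 1/16× serial rates. Injury was scored visually 14 days later, 0-100% versus untreated plants.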

In data set [2] the test system is Key Broadleaf Weed and Crop Species. The data set can be described thus: Post-Emergent Test II (Table 5). The class given is in vivo. Conditions: post-emergence, 336 h; for pest or weed control at 70 g/ha: application rate 70 (kg ai/ha; footnote: g ai/ha); for pest or weed control at 140 g/ha: application rate 140 (kg ai/ha; footnote: g ai/ha). The gist of the method: as §1

Setting [3] is: CYPSS, 140 g ai/ha, read-out: Visual Growth Reduction (%) 14 Days After Application CYPSS.
Setting [4] is: DIGSA: crabgrass (Digitaria sanguinalis), 140 g ai/ha, read-out: Visual Growth Reduction (%) 14 Days After Application DIGSA.
Where [5] appears, read: ECHSS, 140 g ai/ha, read-out: Visual Growth Reduction (%) 14 Days After Application ECHSS.
Setting [6] is: ORYSS (crop), 140 g ai/ha, read-out: Visual Growth Reduction (%) 14 Days After Application ORYSS.
[7] abbreviates: SETFA: giant foxtail (Setaria faberi), 140 g ai/ha, read-out: Visual Growth Reduction (%) 14 Days After Application SETFA.
The mark [8] stands for this setting: SORVU: grain sorghum (Sorghum vulgare), 140 g ai/ha, read-out: Visual Growth Reduction (%) 14 Days After Application SORVU.
Where [9] appears, read: TRZSS (crop), 140 g ai/ha, read-out: Visual Growth Reduction (%) 14 Days After Application TRZSS.
Where [10] appears, read: ZEAMX: maize, corn (Zea mays), 140 g ai/ha, read-out: Visual Growth Reduction (%) 14 Days After Application ZEAMX.
Where [11] appears, read: Euphorbia heterophylla, EPHHL: wild poinsettia (Euphorbia heterophylla), read-out: Visual Growth Reduction (%) 14 Days After Application EPHHL.
[12] abbreviates: Viola tricolor, VIOTR: wild pansy (Viola tricolor), read-out: Visual Growth Reduction (%) 14 Days After Application VIOTR.
[13] abbreviates: Abutilon theophrasti, ABUTH: velvetleaf (Abutilon theophrasti), read-out: Visual Growth Reduction (%) 14 Days After Application ABUTH.
The mark [14] stands for this setting: Amaranthus retroflexus, AMARE: redroot pigweed (Amaranthus retroflexus), read-out: Visual Growth Reduction (%) 14 Days After Application AMARE.
The mark [15] stands for this setting: Brassica napus, BRSSS: oilseed rape, canola (Brassica napus), read-out: Visual Growth Reduction (%) 14 Days After Application BRSSS.
[16] abbreviates: Chenopodium album, CHEAL: lambsquarters (Chenopodium album), read-out: Visual Growth Reduction (%) 14 Days After Application CHEAL.
[17] abbreviates: Helianthus annuus, HELAN: sunflower (Helianthus annuus), read-out: Visual Growth Reduction (%) 14 Days After Application HELAN.

On to `COC(=O)c1nc(-c2ccc(C(F)(F)F)nc2)nc(N)c1Cl` [Compound 82, methyl 6-amino-5-chloro-2-(6-(trifluoromethyl)pyridin-3-yl)pyrimidine-4-carboxylate], for which the melting point (as a rule, the temperature of the solid-liquid transition) lay within 179 to 181 °C. Further, the pest or weed control at 70 g/ha in data set [1] (CYPSS, 70 g ai/ha, read-out: Visual Growth Reduction (%) 14 Days After Application CYPSS) was in the range of 0 to 29%. In addition, the pest or weed control at 140 g/ha in data set [1] (setting [3]) lay in the range of 0 to 29%. Besides, the pest or weed control at 70 g/ha in data set [1] (DIGSA: crabgrass (Digitaria sanguinalis), 70 g ai/ha, read-out: Visual Growth Reduction (%) 14 Days After Application DIGSA) was 0 to 29%. For the same compound, the pest or weed control at 140 g/ha in data set [1] (setting [4]) lay in the range of 0 to 29%. Further, the pest or weed control at 70 g/ha in data set [1] (ECHSS, 70 g ai/ha, read-out: Visual Growth Reduction (%) 14 Days After Application ECHSS) lay within 0 to 29%. The pest or weed control at 140 g/ha in data set [1] (setting [5]) fell in the range of 0 to 29%. For the same compound, in data set [1] (ORYSS (crop), 70 g ai/ha, read-out: Visual Growth Reduction (%) 14 Days After Application ORYSS), the pest or weed control at 70 g/ha was in the range of 0 to 29%. For the same compound, in data set [1] (setting [6]), the pest or weed control at 140 g/ha fell in the range of 0 to 29%. Moreover, in data set [1] (SETFA: giant foxtail (Setaria faberi), 70 g ai/ha, read-out: Visual Growth Reduction (%) 14 Days After Application SETFA), the pest or weed control at 70 g/ha fell in the range of 0 to 29%. Also, in data set [1] (setting [7]), the pest or weed control at 140 g/ha was in the range of 0 to 29%. The pest or weed control at 70 g/ha in data set [1] (SORVU: grain sorghum (Sorghum vulgare), 70 g ai/ha, read-out: Visual Growth Reduction (%) 14 Days After Application SORVU) fell in the range of 0 to 29%. Moreover, the pest or weed control at 140 g/ha in data set [1] (setting [8]) fell in the range of 0 to 29%. Moreover, the pest or weed control at 70 g/ha in data set [1] (TRZSS (crop), 70 g ai/ha, read-out: Visual Growth Reduction (%) 14 Days After Application TRZSS) was in the range of 0 to 29%. The pest or weed control at 140 g/ha in data set [1] (setting [9]) lay in the range of 0 to 29%. Moreover, the pest or weed control at 70 g/ha in data set [1] (ZEAMX: maize, corn (Zea mays), 70 g ai/ha, read-out: Visual Growth Reduction (%) 14 Days After Application ZEAMX) was 0 to 29%. The pest or weed control at 140 g/ha in data set [1] (setting [10]) lay in the range of 0 to 29%. Moreover, in data set [2] (setting [11]), the pest or weed control at 70 g/ha lay within 0 to 29% and the pest or weed control at 140 g/ha is 0 to 29%. In data set [2] (setting [12]), the pest or weed control at 70 g/ha was in the range of 0 to 29% and the pest or weed control at 140 g/ha lay within 0 to 29%.

In turn, `COC(=O)c1nc(-c2ccc(C(F)F)nc2)c(F)c(N)c1Cl` [Compound 34, methyl 4-amino-5-chloro-6′-(difluoromethyl)-3-fluoro-2,3′-bipyridine-6-carboxylate] returned a melting point of 144 to 146 °C.

`Nc1c(F)c(-c2ccc(C(F)(F)F)nc2F)nc(C(=O)O)c1Cl` [Compound 26]: the pest or weed control at 140 g/ha in data set [1] (setting [3]), in data set [1] (setting [4]), in data set [1] (setting [5]), in data set [1] (setting [6]), in data set [1] (setting [7]) and in data set [1] (setting [8]) was 0 to 29% each time. For the same compound, the pest or weed control at 140 g/ha in data set [1] (setting [9]), in data set [1] (setting [10]), in data set [2] (setting [13]), in data set [2] (setting [14]), in data set [2] (setting [15]) and in data set [2] (setting [16]) was 0 to 29% in each case. Moreover, the pest or weed control at 140 g/ha in data set [2] (setting [11]) fell in the range of 0 to 29%; in data set [2] (setting [17]) it was 45 to 59%; in data set [2] (setting [12]) it was 0 to 29%.

As to `Nc1cc(-c2ccc(Cl)c(F)c2C(F)F)nc(C(=O)O)c1Cl` [Compound 13, 4-Amino-3-chloro-6-(4-chloro-2-(difluoromethyl)-3-fluorophenyl)picolinic acid], the “Visual Growth Reduction (%) 14 Days After Application, CYPSS” value in data set [1] (70 g ai/ha) and in data set [1] (140 g ai/ha) was “G (0-29)” each time. Moreover, the “Visual Growth Reduction (%) 14 Days After Application, DIGSA” value in data set [1] (DIGSA: crabgrass (Digitaria sanguinalis), 70 g ai/ha) is “G (0-29)”; in data set [1] (DIGSA: crabgrass (Digitaria sanguinalis), 140 g ai/ha) it was “G (0-29)”. For the same compound, the “Visual Growth Reduction (%) 14 Days After Application, ECHSS” value in data set [1] (70 g ai/ha) and in data set [1] (140 g ai/ha) was “G (0-29)” in each case. Besides, the “Visual Growth Reduction (%) 14 Days After Application, ORYSS” value in data set [1] (70 g ai/ha) and in data set [1] (140 g ai/ha) was “G (0-29)” throughout. Besides, the “Visual Growth Reduction (%) 14 Days After Application, SETFA” value is given as “G (0-29)” in data set [1] (SETFA: giant foxtail (Setaria faberi), 70 g ai/ha) and “G (0-29)” in data set [1] (SETFA: giant foxtail (Setaria faberi), 140 g ai/ha). In addition, the “Visual Growth Reduction (%) 14 Days After Application, SORVU” value in data set [1] (70 g ai/ha) and in data set [1] (140 g ai/ha) was “G (0-29)” throughout. For the same compound, the “Visual Growth Reduction (%) 14 Days After Application, TRZSS” value in data set [1] (70 g ai/ha) and in data set [1] (140 g ai/ha) was “G (0-29)” each time. For the same compound, the “Visual Growth Reduction (%) 14 Days After Application, ZEAMX” value is given as “G (0-29)” in data set [1] (ZEAMX: maize, corn (Zea mays), 70 g ai/ha) and “G (0-29)” in data set [1] (ZEAMX: maize, corn (Zea mays), 140 g ai/ha). Further, the pest or weed control at 70 g/ha in data set [2] (setting [13]) was 75 to 84%; in data set [2] (setting [14]), 95 to 100%; in data set [2] (setting [15]) it was 85 to 94%; in data set [2] (setting [16]), 95 to 100%; in data set [2] (setting [11]) it was 0 to 29%; in data set [2] (setting [17]), 85 to 94%. The pest or weed control at 70 g/ha in data set [2] (setting [12]) was 0 to 29%. Besides, the pest or weed control at 140 g/ha in data set [2] (setting [13]) lay in the range of 0 to 29%; in data set [2] (setting [14]), 95 to 100%; in data set [2] (setting [15]), 85 to 94%; in data set [2] (setting [16]), 95 to 100%; in data set [2] (setting [11]), 0 to 29%; in data set [2] (setting [17]), 85 to 94%. In addition, the pest or weed control at 140 g/ha in data set [2] (setting [12]) lay in the range of 0 to 29%.

In turn, `CCc1c(-c2cc(N)c(Cl)c(C(=O)OC)n2)ccc(Cl)c1F` [Compound 21] had a melting point of 140 to 143 °C.
